Laboratory results as given in ChEMBL document CHEMBL1921713, “A simple synthesis of APM ([p-(N-acrylamino)-phenyl]mercuric chloride), a useful tool for the analysis of thiolated biomolecules” (Bioorg Med Chem Lett, 2011).
Calls of active or inactive are those of the source. No cut-off for these calls is given here.

Columns and labels:
Format in all cases: nucleic-acid assay
[1] = system: Nucleic Acid; experiment: Binding affinity to ctu1-deficient Schizosaccharomyces pombe Lys-tRNA using 32P-labelled probe by PAGE analysis
[2] = system: Nucleic Acid; experiment: Binding affinity to Schizosaccharomyces pombe Non-thiolated Met-tRNA using 32P-labelled probe by PAGE analysis
[3] = system: Nucleic Acid; experiment: Binding affinity to Schizosaccharomyces pombe Thiolated Lys-tRNA using 32P-labelled probe by PAGE analysis

[p-(N-acrylamino)-phenyl]mercuric chloride
Activity [1]: inactive
Activity [2]: inactive
Activity [3]: Active
